In paper PMC11035696, “Prospective de novo drug design with deep interactome learning” (Nature Communications, 2024):
“And” between values parts separate entries of the source, which are not always exact repeats. Equal values may be shown once.

Tests used:
[1] = biological target: T1, liver X receptor (LXR)α (Homo sapiens, UniProt Q13133); experiment: Nuclear receptor selectivity profiling, hybrid reporter gene assay, LXRα; assay type: cell-based
T1 construct: LXRα (pFA-CMV-hLXRα-LBD[104], 1 μM TO901317); expressed in transfected cells; host or cells: HEK293T
T1 sequence (Q13133 209-447 limits assumed): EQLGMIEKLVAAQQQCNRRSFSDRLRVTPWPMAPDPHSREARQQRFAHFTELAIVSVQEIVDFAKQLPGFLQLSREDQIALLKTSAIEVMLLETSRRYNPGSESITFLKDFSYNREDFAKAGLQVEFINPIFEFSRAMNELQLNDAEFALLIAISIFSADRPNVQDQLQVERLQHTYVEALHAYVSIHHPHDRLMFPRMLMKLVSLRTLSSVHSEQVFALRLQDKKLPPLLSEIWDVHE
Description: (§1) PPAR activation was determined in uniform Gal4-hybrid reporter gene assays for the PPARα, PPARγ and PPARδ isoforms in HEK293T cells (German Collection of Microorganisms and Cell Culture GmbH, DSMZ) which were transiently transfected with pFR-Luc (Stratagene, La Jolla, CA, USA; reporter) and pRL-SV40 (Promega, Madison, WI, USA; internal control) and one pFA-CMV-hPPAR-LBD[97] clone, coding for the hinge region and ligand binding domain of the canonical isoform of human PPARα, PPARγ, PPARδ or respectively. Cells were cultured in Dulbecco’s modified Eagle’s medium (DMEM), high glucose supplemented with 10% fetal calf serum (FCS), sodium pyruvate (1 mM), penicillin (100 U ⋅ ml^-1), and streptomycin (100 μg ⋅ ml^-1) at 37 °C and 5% CO2 and seeded in 96-well plates (3 × 10^4 cells per well). After 24 h, medium was changed to Opti-MEM without supplements and cells were transiently transfected using Lipofectamine LTX reagent (Invitrogen) according to the manufacturer’s protocol. Five hours after transfection, cells were incubated with the test compounds in Opti-MEM supplemented with penicillin (100 U ⋅ ml^-1), streptomycin (100 μg ⋅ ml^-1) and 0.1% DMSO for 16 h before luciferase activity was measured using the Dual-Glo Luciferase Assay System (Promega) according to the manufacturer’s protocol on a Tecan Spark luminometer (Tecan Deutschland GmbH, Germany). Firefly luminescence was divided by Renilla luminescence and multiplied by 1000 resulting in relative light units (RLU) to normalize for transfection efficiency and cell growth. Fold activation was obtained by dividing the mean RLU of a test compound by the mean RLU of the untreated control. All samples were tested in at least three biologically independent experiments in duplicates. For dose-response curve fitting and calculation of EC50 values, the equation “[Agonist] versus response (variable slope—four parameters)” was used in GraphPad Prism (version 7.00, GraphPad Software, La Jolla, CA, USA) with fold activation data. The reference agonizts GW7647 (PPARα)[98],[99], pioglitazone (PPARγ)[100],[101] and L165,041 (PPARδ)[102],[103] were used to validate the assays and to monitor assay performance. Nuclear receptor selectivity profiling was performed with corresponding pFA-CMV-hNR-LBD clones and suitable reference agonizts on RARα (pFA-CMV-hRARα-LBD[104], 1 μM tretinoin), LXRα (pFA-CMV-hLXRα-LBD[104], 1 μM TO901317) and RXRα (pFA-CMV-h RXRα-LBD[105], 1 μM Bexarotene).

[2] = biological target: T2, retinoic acid receptor (RAR)α (Homo sapiens, UniProt P10276); experiment: Nuclear receptor selectivity profiling, hybrid reporter gene assay, RARα; assay type: cell-based
T2 construct: RARα (pFA-CMV-hRARα-LBD[104], 1 μM tretinoin); expressed in transfected cells; host or cells: HEK293T
T2 sequence (P10276 183-417 limits assumed): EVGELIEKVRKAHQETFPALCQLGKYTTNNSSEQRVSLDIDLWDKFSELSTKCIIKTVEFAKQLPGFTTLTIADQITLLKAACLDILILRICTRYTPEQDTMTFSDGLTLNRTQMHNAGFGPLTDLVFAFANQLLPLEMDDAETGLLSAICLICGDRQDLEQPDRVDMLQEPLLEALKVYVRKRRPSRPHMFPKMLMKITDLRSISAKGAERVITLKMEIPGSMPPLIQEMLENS
Description: (§2) Compounds 1–3 were characterized in a hybrid reporter gene assay for their agoniztic effect on human nuclear receptors PPARα/γ/δ, RXRα, FXRα, RARα in HEK293T cells. Compound 1 was tested in an isothermal titration calorimetry (ITC) assay to measure direct binding affinity to the ligand-binding domain of PPARγ. ADME properties were measured in standardized assays at Roche.
as §1

[3] = biological target: T3, human PPARγ (Homo sapiens, UniProt P37231); experiment: Gal4-hybrid reporter gene assay, PPARγ activation; assay type: cell-based; conditions: PPARγ, compounds 1 and 2, Table 4; read-out: pEC50 (converted)
T3 construct: expressed in transfected cells; host or cells: HEK293T
T3 sequence (P37231 238-503 limits assumed): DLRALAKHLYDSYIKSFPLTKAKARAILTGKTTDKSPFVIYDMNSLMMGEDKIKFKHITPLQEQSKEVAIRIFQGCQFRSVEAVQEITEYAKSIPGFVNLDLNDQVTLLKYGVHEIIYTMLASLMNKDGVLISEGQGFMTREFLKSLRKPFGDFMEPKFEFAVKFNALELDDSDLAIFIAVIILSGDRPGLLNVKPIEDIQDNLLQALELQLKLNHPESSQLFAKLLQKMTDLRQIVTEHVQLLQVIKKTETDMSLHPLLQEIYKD
Description: as §2, §1

[4] = system: P-glycoprotein (Pgp); experiment: P-glycoprotein (Pgp) efflux assay; assay type: in vitro ADME; conditions: mouse; for Papp: PAMPA, read-out: PgP Transport mouse permeability; for efflux ratio: not told, read-out: PgP Transport mouse apical efflux ratio
Description: as §2
SI11Absorption Distribution Metabolism and Excretion and Toxicity Data
To assess the drug-like characteristics of the newly designed PPAR modulators, a series of tests were conducted covering various aspects of absorption, distribution, metabolism, and excretion (ADME) properties. Specifically, these assessments included the parallel artificial membrane permeability assay (PAMPA) with permeation co- […]
efficients ([…]), LogD measurements, microsomal clearance, hepatocyte clearance, P-glycoprotein (Pgp) efflux ratio and binding and the unbound free fraction. […]
Table S14: Absorption distribution metabolism and excretion (ADME) properties of compounds 1 and 2. The […]
values for […], LogD, protein binding, P-glycoprotein (Pgp) efflux ratio and permeability, and hepato-cyte clearance are presented as the mean and standard deviation, with a sample size of N = 3, i.e., 3 technical replicates each. The values for microsomal clearance and CYP-inhibition represent single point measurements. […]
PgP Transport mouse apical efflux ratio - 1.6 1.2
PgP Transport mouse permeability (nm·sec−1) - 15 60 […]

Cc1nnc(-c2ccc(OCCCOc3ccc(CCC(=O)O)c(F)c3)c(F)c2)s1 [Compound 1]
LXRα reporter activation, replicate values (DMSO ctrl = 1,000) ([1]; 3 µM): 1,029 and 1,028 and 1,248
LXRα reporter activation, replicate values (DMSO ctrl = 1,000) ([1]; 10 µM): 3,397 and 1,447 and 1,490
RARα reporter activation, replicate values (DMSO ctrl = 1,000) ([2]; 3 µM): 0,775 and 0,698 and 0,825
RARα reporter activation, replicate values (DMSO ctrl = 1,000) ([2]; 10 µM): 1,145 and 0,633 and 0,940
EC50 [3]: 1.48 µM
Papp [4]: 1.5 ×10⁻⁶ cm/s
efflux ratio [4]: 1.6

COc1ccc(Oc2ccc3ncn(CCOc4ccc(CCC(=O)O)cc4)c3c2)cc1 [Compound 2]
LXRα reporter activation, replicate values (DMSO ctrl = 1,000) ([1]; 3 µM): 0,566 and 1,566 and 1,418
LXRα reporter activation, replicate values (DMSO ctrl = 1,000) ([1]; 10 µM): 1,976 and 2,098 and 2,121
RARα reporter activation, replicate values (DMSO ctrl = 1,000) ([2]; 3 µM): 1,038 and 0,832 and 1,499
RARα reporter activation, replicate values (DMSO ctrl = 1,000) ([2]; 10 µM): 1,361 and 1,194 and 1,664
EC50 [3]: 2.29 µM
Papp [4]: 6 ×10⁻⁶ cm/s
efflux ratio [4]: 1.2
